{"source": "patent US20150209315A1", "about": "(Cumberland Pharmaceuticals, priority 2009, published 2015)", "key": {"[1]": {"system": "post-operative adult patients", "experiment": "Example 1: patient self-assessment of pain, VAS with movement", "format": "in vivo, human", "set-up": "key to VAS Score measured with Movement (median): VAS 0-10: 0 = no pain, 10 = intense pain", "experimental": "Pain was measured by the patient's self-assessment using a Visual Analog Scale (VAS) from 0-10 with 0 being no pain and 10 being intense pain. This was measured both at rest and with movement. […] […] To account for the missing pain assessments, two missing value approaches as described in the statistical analysis plan were used to impute values. To determine the difference in overall pain at differing time-points, the area under the VAS pain curve during the first 24 hours, between 6 and 24 hours and between 12 and 24 hours were analyzed."}, "[2]": {"conditions": "cited from earlier work"}}, "data": [{"smiles": "CC(C)Cc1ccc(C(C)C(=O)O)cc1", "note": "(centres unmarked) [Ibuprofen, 2-(4-isobutylphenyl) propionic acid]", "values": [{"measurement": "VAS Score measured with Movement (median)", "setting": "[1]; 400 mg, ITT, 36-Hour", "value": 3.6}, {"measurement": "VAS Score measured with Movement, % Reduction vs Placebo", "setting": "[1]; 400 mg, ITT, 36-Hour", "value": 10.0, "unit": "%"}, {"measurement": "VAS Score measured with Movement (median)", "setting": "[1]; 400 mg, ITT, 39-Hour", "value": 3.1}, {"measurement": "VAS Score measured with Movement (median)", "setting": "[1]; 400 mg, ITT, 42-Hour", "value": 3.3}, {"measurement": "VAS Score measured with Movement, % Reduction vs Placebo", "setting": "[1]; 400 mg, ITT, 42-Hour", "value": 2.9, "unit": "%"}, {"measurement": "VAS Score measured with Movement (median)", "setting": "[1]; 400 mg, ITT, 45-Hour", "value": 3.3}, {"measurement": "VAS Score measured with Movement, % Reduction vs Placebo", "setting": "[1]; 400 mg, ITT, 45-Hour", "value": "−6.5", "unit": "%"}, {"measurement": "VAS Score measured with Movement (median)", "setting": "[1]; 400 mg, ITT, 48-Hour", "value": 3.2}, {"measurement": "VAS Score measured with Movement, % Reduction vs Placebo", "setting": "[1]; 400 mg, ITT, 48-Hour", "value": "−39.1", "unit": "%"}, {"measurement": "VAS Score measured with Movement (median)", "setting": "[1]; 800 mg, EEP, 1-Hour", "value": 7.8}, {"measurement": "VAS Score measured with Movement, % Reduction vs Placebo", "setting": "[1]; 800 mg, EEP, 1-Hour", "value": 2.5, "unit": "%"}, {"measurement": "VAS Score measured with Movement (median)", "setting": "[1]; 800 mg, EEP, 2-Hour", "value": 7.0}, {"measurement": "VAS Score measured with Movement, % Reduction vs Placebo", "setting": "[1]; 800 mg, EEP, 2-Hour", "value": 1.4, "unit": "%"}, {"measurement": "VAS Score measured with Movement (median)", "setting": "[1]; 800 mg, EEP, 3-Hour", "value": 6.1}, {"measurement": "VAS Score measured with Movement, % Reduction vs Placebo", "setting": "[1]; 800 mg, EEP, 3-Hour", "value": "−1.7", "unit": "%"}, {"measurement": "VAS Score measured with Movement (median)", "setting": "[1]; 800 mg, EEP, 6-Hour", "value": 5.6}, {"measurement": "VAS Score measured with Movement, % Reduction vs Placebo", "setting": "[1]; 800 mg, EEP, 6-Hour", "value": "−12.0", "unit": "%"}, {"measurement": "VAS Score measured with Movement (median)", "setting": "[1]; 800 mg, EEP, 9-Hour", "value": 4.8}, {"measurement": "VAS Score measured with Movement, % Reduction vs Placebo", "setting": "[1]; 800 mg, EEP, 9-Hour", "value": 4.0, "unit": "%"}, {"measurement": "VAS Score measured with Movement (median)", "setting": "[1]; 800 mg, EEP, 12-Hour", "value": 4.4}, {"measurement": "VAS Score measured with Movement (median)", "setting": "[1]; 800 mg, EEP, 15-Hour", "value": 4.2}, {"measurement": "VAS Score measured with Movement, % Reduction vs Placebo", "setting": "[1]; 800 mg, EEP, 15-Hour", "value": 16.0, "unit": "%"}, {"measurement": "VAS Score measured with Movement (median)", "setting": "[1]; 800 mg, EEP, 18-Hour", "value": 4.0}, {"measurement": "VAS Score measured with Movement, % Reduction vs Placebo", "setting": "[1]; 800 mg, EEP, 18-Hour", "value": 20.0, "unit": "%"}, {"measurement": "VAS Score measured with Movement (median)", "setting": "[1]; 800 mg, EEP, 21-Hour", "value": 3.7}, {"measurement": "VAS Score measured with Movement, % Reduction vs Placebo", "setting": "[1]; 800 mg, EEP, 21-Hour", "value": 26.0, "unit": "%"}, {"measurement": "VAS Score measured with Movement (median)", "setting": "[1]; 800 mg, EEP, 24-Hour", "value": 3.6}, {"measurement": "VAS Score measured with Movement, % Reduction vs Placebo", "setting": "[1]; 800 mg, EEP, 24-Hour", "value": 18.2, "unit": "%"}, {"measurement": "VAS Score measured with Movement (median)", "setting": "[1]; 800 mg, EEP, 27-Hour", "value": 3.7}, {"measurement": "VAS Score measured with Movement, % Reduction vs Placebo", "setting": "[1]; 800 mg, EEP, 27-Hour", "value": 17.8, "unit": "%"}, {"measurement": "VAS Score measured with Movement (median)", "setting": "[1]; 800 mg, EEP, 30-Hour", "value": 3.6}, {"measurement": "VAS Score measured with Movement (median)", "setting": "[1]; 800 mg, EEP, 33-Hour", "value": 3.6}, {"measurement": "VAS Score measured with Movement, % Reduction vs Placebo", "setting": "[1]; 800 mg, EEP, 33-Hour", "value": 5.3, "unit": "%"}, {"measurement": "VAS Score measured with Movement (median)", "setting": "[1]; 800 mg, EEP, 36-Hour", "value": 3.4}, {"measurement": "VAS Score measured with Movement (median)", "setting": "[1]; 800 mg, EEP, 39-Hour", "value": 3.8}, {"measurement": "VAS Score measured with Movement, % Reduction vs Placebo", "setting": "[1]; 800 mg, EEP, 39-Hour", "value": "−11.8", "unit": "%"}, {"measurement": "VAS Score measured with Movement (median)", "setting": "[1]; 800 mg, EEP, 42-Hour", "value": 3.2}, {"measurement": "VAS Score measured with Movement, % Reduction vs Placebo", "setting": "[1]; 800 mg, EEP, 42-Hour", "value": 8.6, "unit": "%"}, {"measurement": "VAS Score measured with Movement (median)", "setting": "[1]; 800 mg, EEP, 45 Hour", "value": 2.8}, {"measurement": "VAS Score measured with Movement, % Reduction vs Placebo", "setting": "[1]; 800 mg, EEP, 45 Hour", "value": 9.7, "unit": "%"}, {"measurement": "VAS Score measured with Movement (median)", "setting": "[1]; 800 mg, EEP, 48-Hour", "value": 2.1}, {"measurement": "VAS Score measured with Movement (median)", "setting": "[1]; 800 mg, ITT, 1-Hour", "value": 7.3}, {"measurement": "VAS Score measured with Movement, % Reduction vs Placebo", "setting": "[1]; 800 mg, ITT, 1-Hour", "value": 8.8, "unit": "%"}, {"measurement": "VAS Score measured with Movement (median)", "setting": "[1]; 800 mg, ITT, 2-Hour", "value": 6.8}, {"measurement": "VAS Score measured with Movement, % Reduction vs Placebo", "setting": "[1]; 800 mg, ITT, 2-Hour", "value": 6.8, "unit": "%"}, {"measurement": "VAS Score measured with Movement (median)", "setting": "[1]; 800 mg, ITT, 3-Hour", "value": 6.0}, {"measurement": "VAS Score measured with Movement, % Reduction vs Placebo", "setting": "[1]; 800 mg, ITT, 3-Hour", "value": 4.8, "unit": "%"}, {"measurement": "VAS Score measured with Movement (median)", "setting": "[1]; 800 mg, ITT, 6-Hour", "value": 5.3}, {"measurement": "VAS Score measured with Movement, % Reduction vs Placebo", "setting": "[1]; 800 mg, ITT, 6-Hour", "value": 7.0, "unit": "%"}, {"measurement": "VAS Score measured with Movement (median)", "setting": "[1]; 800 mg, ITT, 9-Hour", "value": 4.6}, {"measurement": "VAS Score measured with Movement (median)", "setting": "[1]; 800 mg, ITT, 12-Hour", "value": 4.3}, {"measurement": "VAS Score measured with Movement, % Reduction vs Placebo", "setting": "[1]; 800 mg, ITT, 12-Hour", "value": 14.0, "unit": "%"}, {"measurement": "VAS Score measured with Movement (median)", "setting": "[1]; 800 mg, ITT, 15-Hour", "value": 4.2}, {"measurement": "VAS Score measured with Movement, % Reduction vs Placebo", "setting": "[1]; 800 mg, ITT, 15-Hour", "value": 16.0, "unit": "%"}, {"measurement": "VAS Score measured with Movement (median)", "setting": "[1]; 800 mg, ITT, 18-Hour", "value": 4.0}, {"measurement": "VAS Score measured with Movement, % Reduction vs Placebo", "setting": "[1]; 800 mg, ITT, 18-Hour", "value": 20.0, "unit": "%"}, {"measurement": "VAS Score measured with Movement (median)", "setting": "[1]; 800 mg, ITT, 21-Hour", "value": 3.8}, {"measurement": "VAS Score measured with Movement, % Reduction vs Placebo", "setting": "[1]; 800 mg, ITT, 21-Hour", "value": 22.4, "unit": "%"}, {"measurement": "VAS Score measured with Movement (median)", "setting": "[1]; 800 mg, ITT, 24-Hour", "value": 3.7}, {"measurement": "VAS Score measured with Movement, % Reduction vs Placebo", "setting": "[1]; 800 mg, ITT, 24-Hour", "value": 17.8, "unit": "%"}, {"measurement": "VAS Score measured with Movement (median)", "setting": "[1]; 800 mg, ITT, 27 Hour", "value": 3.6}, {"measurement": "VAS Score measured with Movement, % Reduction vs Placebo", "setting": "[1]; 800 mg, ITT, 27 Hour", "value": 18.2, "unit": "%"}, {"measurement": "VAS Score measured with Movement (median)", "setting": "[1]; 800 mg, ITT, 30-Hour", "value": 3.5}, {"measurement": "VAS Score measured with Movement (median)", "setting": "[1]; 800 mg, ITT, 33-Hour", "value": 3.5}, {"measurement": "VAS Score measured with Movement, % Reduction vs Placebo", "setting": "[1]; 800 mg, ITT, 33-Hour", "value": 7.9, "unit": "%"}, {"measurement": "VAS Score measured with Movement (median)", "setting": "[1]; 800 mg, ITT, 36-Hour", "value": 3.5}, {"measurement": "VAS Score measured with Movement (median)", "setting": "[1]; 800 mg, ITT, 39-Hour", "value": 3.7}, {"measurement": "VAS Score measured with Movement, % Reduction vs Placebo", "setting": "[1]; 800 mg, ITT, 39-Hour", "value": -5.7, "unit": "%"}, {"measurement": "VAS Score measured with Movement (median)", "setting": "[1]; 800 mg, ITT, 42-Hour", "value": 3.3}, {"measurement": "VAS Score measured with Movement, % Reduction vs Placebo", "setting": "[1]; 800 mg, ITT, 42-Hour", "value": 2.9, "unit": "%"}, {"measurement": "VAS Score measured with Movement (median)", "setting": "[1]; 800 mg, ITT, 45-Hour", "value": 2.7}, {"measurement": "VAS Score measured with Movement (median)", "setting": "[1]; 800 mg, ITT, 48-Hour", "value": 2.1}, {"measurement": "VAS Score measured with Movement, % Reduction vs Placebo", "setting": "[1]; 800 mg, ITT, 48-Hour", "value": 8.7, "unit": "%"}, {"measurement": "solubility in water", "setting": "[2]", "value": "very poorly soluble in water"}]}]}
